From US7642280B2, “Inhibitors of acyl glucosaminyl inositol amidase and methods of use” (The Regents of the University of California, priority 2001, dated 2010)
Where two headings read alike, the source gives them in different places.

Legend:
[1] = target: Mycobacterium smegmatis mycothiol-S-conjugate amidase (MCA) (Mycolicibacterium smegmatis, UniProt A0R2W9); assay: Fluorescence-based HPLC IC50 assay, wild type M. smegmatis MCA with natural MSmB; assay type: biochemical
[2] = target: M. tuberculosis MCA (Mycobacterium tuberculosis, UniProt P9WJN1); assay: biochemical
Chain of M. tuberculosis MCA (P9WJN1 whole entry): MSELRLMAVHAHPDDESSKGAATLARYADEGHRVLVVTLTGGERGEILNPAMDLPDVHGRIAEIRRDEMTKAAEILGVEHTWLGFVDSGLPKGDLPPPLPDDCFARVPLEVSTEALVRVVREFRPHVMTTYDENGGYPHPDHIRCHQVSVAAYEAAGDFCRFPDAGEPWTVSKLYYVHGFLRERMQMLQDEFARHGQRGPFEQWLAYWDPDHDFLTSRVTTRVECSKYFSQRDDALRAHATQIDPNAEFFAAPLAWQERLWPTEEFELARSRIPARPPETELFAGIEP

[3] = target: mycothiol S-conjugate amidase (MCA) (Mycolicibacterium smegmatis, UniProt A0R2W9); assay: Fluorescence-detected HPLC assay of MCA cleavage of MSmB (50 μM MSmB as substrate), Examples 1 and 3; assay type: biochemical
Chain of mycothiol S-conjugate amidase (MCA) (A0R2W9 whole entry): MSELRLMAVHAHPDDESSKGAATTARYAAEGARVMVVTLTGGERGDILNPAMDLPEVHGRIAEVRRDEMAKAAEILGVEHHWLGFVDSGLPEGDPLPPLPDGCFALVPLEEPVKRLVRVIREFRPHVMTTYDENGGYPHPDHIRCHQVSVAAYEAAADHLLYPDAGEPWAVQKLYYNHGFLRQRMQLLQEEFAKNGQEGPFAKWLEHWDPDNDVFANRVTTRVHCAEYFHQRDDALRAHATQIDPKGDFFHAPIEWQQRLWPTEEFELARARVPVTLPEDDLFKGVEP

[4] = wild type M. smegmatis MCA approx. 20 nM, 30 μM natural MSmB, 20 min, 31° C., read-out: IC50 M. smeg
[5] = recombinant M. tuberculosis MCA approx. 20 nM, 30 μM synthetic MSmB, 20 min, 31° C., read-out: IC50 M. tb
[6] = 50 μM MSmB as substrate, read-out: concentration that inhibited mycothiol S-conjugate amidase by 50%

Chain of Mycobacterium smegmatis mycothiol-S-conjugate amidase (MCA) (A0R2W9 whole entry): as above

Molecule	IC50 [1, 4]	IC50 [2, 5]	other results
halisulfate 1 [Compound 11]	40 µM		
oceanapiside aglycon [Compound 8]		20 µM	
O=c1c(O)c[nH]c2c(O)ccc(O)c12 [uranidine, reference compound]			inhibitory activity against MCA (in words) ([3]; 50 μM MSmB as substrate, absence of cleavage product AcCys-bimane): ineffective
COC1=C(Br)[C@@H](O)[C@]2(C=C1Br)CC(C(=O)NCCc1[nH]c(N)nc1-c1cc(O)c3ncc(O)c(O)c3c1O)=NO2 [Compound 1]		3 µM	IC50 [1]: 2 µM; IC50 [3]: 2 µM
Oceanapiside [Compound 7]	0.5 µM	10 µM	IC50 ([3]; 50 μM MSmB as substrate, read-out: IC50 amidase inhibition (Example 3, FIG. 6)): 5 µM
COc1cc(O)c2c(c1)C(=O)c1cc(C)cc(O)c1C2=O [Compound 14, Physcion]	50 µM		
COC1=C(Br)[C@@H](O)[C@]2(C=C1Br)CC(C(=O)NCCc1cnc(N)[nH]1)=NO2 [Compound 2, Pseudoceratine]	100 µM	100 µM	IC50 [3, 6]: 100 µM
Suvanine [Compound 10]	60 µM		
COC1=C(Br)C[C@]2(OC=C1Br)ON=C(C(=O)NCCCOc1c(Br)cc(C(O)CN)cc1Br)[C@@H]2O (stereo partly shown) [Compound 4, psammaplysin B]	20 µM	30 µM	IC50 [3, 6]: 3 µM
CS[C@]1(CO)C(=O)N2[C@H]3C(=CC=C[C@@H]3O)C[C@@]2(SC)C(=O)N1C [Compound 13, S,S-dimethyl gliotoxin]	280 µM		
psammaplysin A [Compound 3]	30 µM	30 µM	
CN1C(=O)[C@]23CC4=CC=C[C@H](O)[C@H]4N2C(=O)[C@@]1(CO)SS3 [Compound 12, Gliotoxin]	30 µM		IC50 [2]: 30 µM
